Source: US9538782B2, “Inhibition of sensory irritation during consumption of smokeless tobacco products using a combinatorial approach” (Altria Client Services LLC, priority 2013, dated 2017)

How the values were obtained:
[1] = target: TRPV1 sensory channel (Homo sapiens, UniProt Q8NER1); assay: TRPV1 activation in human tissue culture cells expressing the TRPV1 sensory channel; format: cell-based; details: activator capsaicin or camphor applied co-incident with curcumin or 5 minutes after curcumin
TRPV1 sensory channel, sequence (Q8NER1 whole entry): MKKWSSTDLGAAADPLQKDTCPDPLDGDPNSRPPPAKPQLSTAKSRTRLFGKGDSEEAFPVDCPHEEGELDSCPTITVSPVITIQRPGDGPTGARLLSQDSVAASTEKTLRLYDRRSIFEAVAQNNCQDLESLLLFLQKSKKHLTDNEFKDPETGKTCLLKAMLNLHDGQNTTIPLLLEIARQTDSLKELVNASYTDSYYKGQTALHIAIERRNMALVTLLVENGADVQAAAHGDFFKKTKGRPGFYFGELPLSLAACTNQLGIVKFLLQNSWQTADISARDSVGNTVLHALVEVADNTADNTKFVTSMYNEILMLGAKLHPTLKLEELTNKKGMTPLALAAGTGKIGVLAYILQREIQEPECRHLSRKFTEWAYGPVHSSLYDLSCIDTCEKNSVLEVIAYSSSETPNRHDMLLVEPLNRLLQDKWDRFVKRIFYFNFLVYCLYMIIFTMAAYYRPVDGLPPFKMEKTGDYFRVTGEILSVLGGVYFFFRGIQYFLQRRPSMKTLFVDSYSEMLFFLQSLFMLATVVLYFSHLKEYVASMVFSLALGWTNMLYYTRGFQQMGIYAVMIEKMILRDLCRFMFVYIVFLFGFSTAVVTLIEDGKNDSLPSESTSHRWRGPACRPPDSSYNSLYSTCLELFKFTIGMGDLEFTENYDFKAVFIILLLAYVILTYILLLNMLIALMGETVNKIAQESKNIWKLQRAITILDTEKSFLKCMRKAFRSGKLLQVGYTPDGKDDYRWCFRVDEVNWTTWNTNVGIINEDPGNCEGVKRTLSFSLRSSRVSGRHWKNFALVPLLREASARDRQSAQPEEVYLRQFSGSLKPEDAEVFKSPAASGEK
Procedure: It will be further understood by those skilled in the art that active ingredients appropriate for use in the present smokeless tobacco product may function as antagonists to one or more receptors and/or channels and agonists to one or more receptors and/or channels. Compounds known to activate the TRPV1 channel were applied to human tissue culture cells expressing the TRPV1 sensory channel either co-incident with the application of curcumin or following the application of curcumin by 5 minutes. Camphor and capsaicin are both known activators of the TRPV1 channel. However, these two compounds activate the sensory channel by different mechanisms. Curcumin, on the other hand, is a potent antagonist of the TPRV1 sensory channel. When capasaicin or camphor were added to cells expressing the TRPV1 sensory channel with curcumin, TRPV1 sensory activation was inhibited.

[2] = system: human subjects; assay: human subject study of camphor added to pouches of smokeless tobacco; format: in vivo
Excerpt: Nicotine, for example, is an agonist of the nicotinic acetylcholine receptors, and can produce the sensory irritation, such as burning or stinging, in the mouth or throat, as well as the gastrointestinal discomfort sometimes associated with smokeless tobacco products.

[3] = system: sensory nerve fibers; details: isolated mouse trachea model; Kichco et al. 2007; cited from earlier work

COc1cc(/C=C/C(=O)CC(=O)/C=C/c2ccc(O)c(OC)c2)ccc1O [curcumin]
TRPV1 sensory activation [1]: inhibited

CC12CCC(CC1=O)C2(C)C (stereo not drawn) [camphor]
sensation of burning at the pouch location and along the path of saliva that had been in contact with the pouch [2]: reduced the sensation of burning | activation of sensory nerve fibers induced by nicotine [3]: effectively inhibit
